Like-named read-outs stand apart in the source and are kept apart here.
Experiments:
[1] = tested on: T. cruzi (A1) epimastigotes; test: In vitro trypanocidal activity, Alamar Blue assay, 48 h; assay type: cell-based, Trypanosoma cruzi; conditions: for IC50: 48 h; for Selectivity Index T. cruzi A1: CC50 (J774.2)/IC50
Method: (§1) Both strains were maintained in liver infusion tryptose (LIT) medium supplemented with 10% FBS and 0.1% penicillin-streptomycin. They were preserved by transferring 1 × 10^6 parasites/mL into a new culture medium every week. […] The metabolic activity was determined by the Alamar Blue assay. Briefly, after the incubation period, 20 µL of 2.5 mM resazurin solution was added to each well and incubated for 3 h. Three independent experiments were performed in triplicate. The half-maximum inhibitory concentration (IC50) was determined using probit analysis.

[2] = Cytotoxicity assay, MTT method, 48 h; assay type: cell-based, murine; conditions: mouse, J774.2 macrophage cells, J774.2 cell line, read-out: Macrophage J774.2 CC50 (µM ± SD)
Method: A cytotoxicity assay was performed using the murine macrophage J774.2 cell line, which was recloned from the original ascites and solid tumor J774.1 (according to the manufacturer). The cells were cultured in RPMI medium supplemented with 10% SBF, 100 U […] penicillin, 100 µg/mL streptomycin, and glutamine (2 mM), and 5% CO2 atmosphere. The medium was changed every 2–3 days. Macrophages were used at 1 × 10^6 cells and were incubated with compounds at different concentrations (0.75–100 µM, respectively) at 37 °C for 48 h in a 5% CO2 atmosphere. DMSO was used as a negative control (0.2%). The metabolic activity of macrophages was determined by the MTT method. The percentage of cell viability was calculated, and the half-maximal cytotoxic concentration (CC50) was determined using probit analysis. Three independent assays were conducted in triplicate.

[3] = tested on: T. cruzi (NINOA) epimastigotes; test: In vitro trypanocidal activity, Alamar Blue assay, 48 h; assay type: cell-based, Trypanosoma cruzi; conditions: for Selectivity Index T. cruzi NINOA: CC50 (J774.2)/IC50; for IC50: 48 h, read-out: T. cruzi IC50 (µM ± SD) NINOA
Method: as §1

[4] = tested on: L. mexicana (MHOM/MX/2017/UABJO17FCQEPS) (FCQEPS) promastigotes; test: In vitro leishmanicidal activity, MTT method, 48 h; assay type: cell-based, Leishmania mexicana; conditions: for Selectivity Index L. mexicana FCQEPS: CC50 (J774.2)/IC50; for IC50: Leishmania mexicana, 48 h, read-out: L. mexicana IC50 (µM ± SD) FCQEPS; for IC50 / Leishmanicidal activity class in words, FCQEPS strain: promastigotes, FCQEPS strain; for Leishmanicidal activity class in words, FCQEPS strain: classes by IC50
Method: (§2) To determine the leishmanicidal activity of pyridine-2,5-dicarboxylates, the parasites, in their logarithmic growth phase (5 × 10^5 parasites/mL), were cultured in 96-well microliter plates with the corresponding pyridine-2,5-dicarboxylate compound at different concentrations (0.78–100 µM). Compounds were dissolved in DMSO in a final volume of 200 µL for 48 h at 26 °C. Parasites treated with DMSO (0.2%) were used as a negative control, while treatments with Glucantime and Amphotericin B, at the same concentrations, were used as positive controls. The metabolic activity of the cells was determined using the 3-(4,5-Dimethylthiazol-2-yl)-2,5-diphenyltetrazolium bromide (MTT) method. IC50 was determined using probit analysis. Three independent experiments were performed in triplicate, and the data were analyzed for statistical significance (p < 0.05) using Biostat 5.3.0 software.

[5] = tested on: L. mexicana (MNYC/BZ/62/M379) (M379) promastigotes; test: In vitro leishmanicidal activity, MTT method, 48 h; assay type: cell-based, Leishmania mexicana; conditions: for Selectivity Index L. mexicana M379: CC50 (J774.2)/IC50; for IC50: Leishmania mexicana, 48 h, read-out: L. mexicana IC50 (µM ± SD) M379; for IC50 / Leishmanicidal activity class in words, M379 strain: promastigotes, M379 strain; for Leishmanicidal activity class in words, M379 strain: classes by IC50
Method: as §2

[6] = Trypanosoma cruzi, epimastigotes, NINOA strain
[7] = Trypanosoma cruzi, epimastigotes, A1 strain, read-out: T. cruzi IC50 (µM ± SD) A1
[8] = epimastigotes, A1 strain, read-out: T. cruzi IC50 (µM ± SD) A1

Compound	IC50 ([1]; Trypanosoma cruzi, read-out: T. cruzi IC50 (µM ± SD) A1, epimastigotes, A1 strain, 48 h) [µM]	IC50 ([1]; read-out: T. cruzi IC50 (µM ± SD) A1, epimastigotes, A1 strain) [µM]	CC50 at 48 h [2] [µM]	Selectivity Index T. cruzi NINOA [3]	IC50 [3, 6] [µM]	IC50 ([3]; epimastigotes, NINOA strain) [µM]	Trypanocidal activity class in words, NINOA strain ([3]; epimastigotes, NINOA strain, classes by IC50)	Selectivity Index T. cruzi A1 [1]	Selectivity Index L. mexicana FCQEPS [4]	IC50 [4] [µM]	Leishmanicidal activity class in words, FCQEPS strain [4]	Selectivity Index L. mexicana M379 [5]	IC50 [5] [µM]	Leishmanicidal activity class in words, M379 strain [5]	IC50 [1, 7] [µM]	IC50 [1, 8] [µM]	Trypanocidal activity class in words, A1 strain ([1]; epimastigotes, A1 strain, classes by IC50)
O=C(Cn1ccnc1[N+](=O)[O-])NCc1ccccc1 [Bzn, Benznidazole, reference compound]	< 39	39.08 ± 0.07															
CCOC(=O)c1cc(-c2ccccc2)c(C(=O)OCC)nc1C [Compound 3a, Diethyl 6-methyl-3-phenylpyridine-2,5-dicarboxylate]			> 200	>3.6	≤ 56.7	54.5 ± 2.36	moderate activity	>7.5	>1	> 200	did not have leishmanicidal activity	>1	> 200	did not have antiparasitic activity			
CCOC(=O)c1cc(-c2ccc(C)cc2)c(C(=O)OCC)nc1C [Compound 3b]			> 200	>3.3	59.3	59.4 ± 1.45		>1.9	>1	> 200		>1	> 200	did not have antiparasitic activity	106 ± 1.16		
CCOC(=O)c1cc(-c2ccc(F)cc2)c(C(=O)OCC)nc1C [Compound 3c]			> 200	>1.9	100 ± 1.86			>2.2	>1.7	118 ± 2.08		>1	> 200	inactive	91.7 ± 1.72		
CCOC(=O)c1nc(C)c(C(=O)OCc2ccccc2)cc1-c1ccccc1 [Compound 4a, 5-Benzyl 2-ethyl 6-methyl-3-phenylpyridine-2,5-dicarboxylate]			> 200	>4.7	≤ 56.7	42.4 ± 1.88		>7.0	>1	> 200	did not have leishmanicidal activity	>1	> 200	did not have antiparasitic activity	≤ 56.7	28.5 ± 1.5	
CCOC(=O)c1nc(C)c(C(=O)OCc2ccccc2)cc1-c1ccc(C)cc1 [Compound 4b, 5-Benzyl 2-ethyl 6-methyl-3-(p-tolyl)pyridine-2,5-dicarboxylate]			> 200	>7.5				>3.8	>1	> 200		>1	> 200	did not have antiparasitic activity	≤ 56.7	52.6 ± 1.87	
CCOC(=O)c1nc(C)c(C(=O)OCc2ccccc2)cc1-c1ccc(F)cc1 [Compound 4c]			> 200	>1	> 200			>1	>1	> 200		>1	> 200	inactive	> 200		
CCOC(=O)c1nc(C)c(C(=O)OCc2ccc(C)cc2)cc1-c1ccccc1 [Compound 5a, 2-Ethyl 5-(4-methylbenzyl) 6-methyl-3-phenylpyridine-2,5-dicarboxylate]			> 200	>3.5	≤ 56.7	56.6 ± 1.26		>9.3	>2.1	95 ± 1.36		>1	> 200	did not have antiparasitic activity			
CCOC(=O)c1nc(C)c(C(=O)OCc2ccc(C)cc2)cc1-c1ccc(C)cc1 [Compound 5b]			> 200	>1	> 200			>1	>1	> 200		>1	> 200	did not have antiparasitic activity	> 200		completely lose their trypanocidal activity
CCOC(=O)c1nc(C)c(C(=O)OCc2ccc(C)cc2)cc1-c1ccc(F)cc1 [Compound 5c]			> 200	>1	> 200			>9.6	>1	> 200	abolished their leishmanicidal activity	>1	> 200	inactive	20.8 ± 0.1		
CCOC(=O)c1nc(C)c(C(=O)OCc2ccc3c(c2)OCO3)cc1-c1ccccc1 [Compound 6a, 5-(Benzo[d][1,3]dioxol-5-ylmethyl) 2-ethyl 6-methyl-3-phenylpyridine-2,5-dicarboxylate]			> 200	>7.3	< 28	27.2 ± 0.84		>1	>1	> 200	did not have leishmanicidal activity	>1	> 200	did not have antiparasitic activity	> 200		
CC1CS(=O)(=O)CCN1/N=C/c1ccc([N+](=O)[O-])o1 (stereo not drawn) [Nfx, Nifurtimox, reference compound]					7.09 ± 0.12										19.3 ± 0.08		

Reference: PMC12566703, “Design, Synthesis, In Vitro and In Silico Biological Evaluation of New Pyridine-2,5-Dicarboxylates Esters Bearing Natural Source Fragments as Anti-Trypanosomatid Agents” (Pharmaceutics, 2025)
